Measurements reported in US20160106770A1, “EPIGENETIC MECHANISMS OF ANTI-FIBROTIC ACTION FOR THE LIVER” (University of Southern California, priority 2011, published 2016).

Experiments:
[1] = tested on: TOPFLASH promoter activity in rat primary HSCs; experiment: TOPFLASH TCF promoter-luciferase reporter, transient transfection by electroporation; format: cell-based; details: day 7 primary HSCs
Description: TCF promoter-luciferase construct TOPFLASH (a gift from Dr. Randall Moon, Univ. of Washington, Seattle, Wash.) or a KB luciferase construct was used for transient transfection in the rat primary HSCs by electroporation using the NeonTM Transfection System (Invitrogen). The Renilla pRL-TK construct was used for standardization for transfection efficiency. Cell lysates were analyzed by the dual luciferase assay (Promega) on a luminometer. To assess the activity of IKK, IKK was immunoprecipitated by IKKα antibody and protein G-Sepharose, and the assay was performed at 30° C. for 1 hr in buffer containing 20 mM Tris HCl, pH 7.5, 20 mM MgCl2, 2 mM dithiothreitol, 20 μM ATP, 2 μg GST-IκBα, and [γ-32P]ATP. The reaction was stopped by addition of […] buffer and was resolved by 10% SDS-PAGE followed by a transfer onto a membrane for imaging.

[2] = tested on: culture-activated rat primary HSCs; experiment: Morphologic reversal of culture-activated HSCs (phase contrast / UV autofluorescence microscopy); format: cell-based; details: concentration of 135 and 270 μM
Description: The purity of the cells, as determined by phase contrast microscopy and ultraviolet-excited fluorescence microscopy, exceeded 96%, and the viability as determined by trypan blue exclusion exceeded 94%. In vitro activation of HSCs was achieved by culturing rat HSCs in Dulbecco's modified Eagle's medium (DMEM) with 1.0 g/liter glucose, 10% fetal bovine serum and 1% antibiotics on plastic dish for 3, 5 or 7 days. Culture-activated rat primary HSCs were treated with the YGW or starch (control) aqueous extract at 25% (v/v). To obtain the extract, the YGW or starch powder (provided by S.P. Pharmaceutics Inc.) was suspended in DMEM at the concentration of 35 mg/ml, mixed thoroughly with a vortex for 5 min, and centrifuged at ×150 g for 30 min to collect the supernatant. This supernatant was designated as 100% extract and used after filter-sterilization. RA and BC (Sigma Chemical Co) were dissolved in DMSO and tested at the concentration of 67.5˜270 μM.

[3] = tested on: culture-activated rat primary HSCs; experiment: Real time quantitative PCR of cultured HSCs; format: cell-based; details: for expression of Necdin / expression of Wnt3a / expression of Wnt10b: 270 μM, day 7 HSCs vs vehicle; for EZH2 expression: day 7 HSCs, RA or BC
Text: HSCs were isolated from normal male Wistar rats, C57B1/6 and Coll-GFP mice by in situ digestion of the liver and arabinogalactan gradient ultracentrifugation by the Non-Parenchymal Liver Cell Core of the Southern California Research Center for ALPD and Cirrhosis as described previously in Cheng J H et al,. Wnt antagonism inhibits hepatic stellate cell activation and liver fibrosis, Am J Physiol Gastrointest Liver Physiol, 2007 Nov 15; and Zhu N L et al., The […] pathway causes epigenetic peroxisome proliferator-activated receptor gamma repression in hepatic stellate cells, J Biol Chem, 2010 Oct 1; 285(40):30463-30471, both of which are incorporated by reference herein in their entirety as though fully set forth. The purity of the cells, as determined by phase contrast microscopy and ultraviolet-excited fluorescence microscopy, exceeded 96%, and the viability as determined by trypan blue exclusion exceeded 94%. In vitro activation of HSCs was achieved by culturing rat HSCs in Dulbecco's modified Eagle's medium (DMEM) with 1.0 g/liter glucose, 10% fetal bovine serum and 1% antibiotics on plastic dish for 3, 5 or 7 days. Culture-activated rat primary HSCs were treated with the YGW or starch (control) aqueous extract at 25% (v/v). To obtain the extract, the YGW or starch powder (provided by S.P. Pharmaceutics Inc.) was suspended in DMEM at the concentration of 35 mg/ml, mixed thoroughly with a vortex for 5 min, and centrifuged at ×150 g for 30 min to collect the supernatant. This supernatant was designated as 100% extract and used after filter-sterilization. RA and BC (Sigma Chemical Co) were dissolved in DMSO and tested at the concentration of […]. Total RNA was extracted from the cells using TRIzol reagent (Invitrogen) or RNeasy Mini kit (Qiagen). One microgram of RNA was reverse transcribed to cDNA by using SuperScript III First-Strand Synthesis System (Invitrogen) and amplified by 40 cycles using primers listed below and the SYBR Green PCR Master mix reagent (AB Applied Biosystem). Each threshold cycle (Ct) value was first normalized to the 36B4 Ct value of a sample and subsequently compared between the treatment and control samples.

Pparγ gene = experiment: Chromatin immunoprecipitation (ChIP) at the Pparγ gene in HSCs; format: cell-based, rat; details: day 7 HSCs, RA or BC
Description: For assessing Pparγ epigenetic regulation, carrier ChIP was performed using Raji cells as the source of carrier chromatin. For native ChIP, 20 μg of HSC chromatin was mixed with 80 μg of Raji cell chromatin. For cross-link ChIP, Raji cells (1.4×10^7 cells) were mixed to HSCs (0.2×10^6 cells) and fixed with 1% formaldehyde on the rotating platform for 5-10 minutes at room temperature followed by addition of glycine to a final concentration of 0.125M. After lysis of the cells with SDS buffer (1% SDS, 10 mM EDTA, 50 mM Tris-HCl pH8.1) with protease inhibitors, the lysates were sonicated and snap frozen in aliquots. For chromatin IP, diluted samples were first pre-cleared using protein G-agarose beads and then incubated with antibody against […], MeCP2, H3K27me2, H3K4me2 and […] (Abcam) at 1 μg/μl at 4° C. for overnight followed by precipitation with protein G agarose beads. After elution of immunoprecipitated complex, crosslinking was reversed with 5N NaCl and proteins digested with protease K. Extracted chromatin was subjected to real-time PCR using the primers flanking a segment within Pparγ promoter or exon as previously described in Mann J et al., MeCP2 controls an epigenetic pathway that promotes myofibroblast transdifferentiation and fibrosis, Gastroenterology, 2010 Feb; 138(2):705-14, 714, which is incorporated herein by reference as though fully set forth. Ct values of the samples with non-immune IgG were subtracted and compared to their respective input Ct values.

rat HSCs = experiment: Immunoblot analysis of cultured HSCs; format: cell-based; details: day 7 HSCs, RA or BC
Description: Whole cell extracts were prepared as previously described in Hazra S. et al., Peroxisome proliferator-activated receptor gamma induces a phenotypic switch from activated to quiescent hepatic stellate cells, J Biol Chem, 2004 Mar 19; 279 (12):11392-11401, which is incorporated by reference herein as though fully set forth. Equal amounts of the extract (20 μg) were separated by 8-15% SDS-PAGE and the proteins were transferred to nitrocellulose membranes (Bio-Rad, Hercules, Calif.). MeCP2, type I collagen, and β-actin were detected by incubating with rabbit polyclonal anti-MeCP2 (1:1000) (Abcam), antitype I collagen (1:4000), and anti-β-actin (1:5000) primary antibodies (Santa Cruz Biotechnology) in TBS (100 mM Tris-HCl, 1.5 M NaCl, pH 7.4) with 5% nonfat milk overnightat 4° C. followed by incubation with horseradish peroxidase conjugated goat anti-rabbit secondary antibodies (1:4000) (Sigma) at room temperature for 2 hr. The antigen-antibody complexes' chemiluminescence was detected by using the ECL detection kit (Pierce).

[4] = tested on: BDL-induced cholestatic liver fibrosis in mice; experiment: Bile duct ligation (BDL) cholestatic liver fibrosis model; format: in vivo
Description: Male C57B1/6 and collagen α1(I) promoter-GFP (Coll-GFP) mice were subjected to ligation and scission of the common bile duct (BDL) to induce cholestatic liver fibrosis for HSC isolation or testing the therapeutic efficacy of RA. For the latter, after one week following BDL, RA was intraperitoneally injected daily at the dose of 0.1 mg/25 g body weight until the animals were sacrificed one week later for Sirius-red staining morphometry, immunohistochemistry, and qPCR analysis of the livers as described below.
After 3 days of the extract treatment, the cells were washed with cold phosphate-buffered saline (PBS) and fixed in 4% paraformaldehyde (PF). To stain α-smooth muscle actin (SMA), a fluorescein isothiocyanate (FITC) conjugated antibody (1:200, Sigma, Saint Louis, Mo.) was added as a primary antibody at 4° C. for overnight. After washing and blocking with 5% nonfat milk, fluorescence images were viewed by a Nikon microscope as described above. For intracellular lipid staining, HSCs treated with the extract for 3 days were cultured with retinol (5 μM) and palmitic acid (100 μM) (Sigma, Saint Louis, Mo.) for 48 hr, and fixed with 10% formalin in PBS. Oil Red O (0.5% w/v in isopropanol) was diluted with 67% volume of water, filtered, and added to the fixed HSCs. Apoptosis was detected in cultured HSCs and liver sections from BDL mice using a Cell Death Detection kit from Roche. For liver section immunostaining, liver tissues were fixed with 4% PF and embedded in freezing medium. Cryosections (7 μm) were washed with PBS, digested with 20 μg/ml proteinase K (Invitrogen, Carlsbad, Calif.), and blocked with 5% goat serum and 0.2% bovine serum albumin. The sections were then incubated with mouse anti-SMA antibody conjugated with FITC (Sigma, 1:400) and rabbit anti-desmin antibody (Thermo Scientific, Rockford, Ill., 1:400). After washing, the sections were incubated with goat anti-rabbit antibody conjugated with AlexaFluor 568 (Invitrogen, 1:400) and mouse anti-FITC antibody conjugated with DyLight 488 (Jackson ImmunoResearch, West Grove, Pa., 1:400). The sections were mounted with 4,6-diamidino-2-phenylindole (DAPI) (Invitrogen) and fluorescence images were visualized under a microscope. To quantify the percentage and density of HSCs in the liver after BDL with or without treatment of RA, 6 images were randomly captured using a 10× objective lens in 3 different sections and SMA+ and desmin+HSCs in the parenchyma were counted.
Total RNA was extracted from the cells using TRIzol reagent (Invitrogen) or RNeasy Mini kit (Qiagen). One microgram of RNA was reverse transcribed to cDNA by using SuperScript III First-Strand Synthesis System (Invitrogen) and amplified by 40 cycles using primers listed below and the SYBR Green PCR Master mix reagent (AB Applied Biosystem). Each threshold cycle (Ct) value was first normalized to the 36B4 Ct value of a sample and subsequently compared between the treatment and control samples.

[5] = RA ip daily 0.1 mg/25 g, immunohistochemistry SMA/Desmin, vs vehicle
[6] = RA ip daily 0.1 mg/25 g, vs vehicle

Structure (SMILES)	TOPFLASH activity [1]	morphologic reversal of activated HSCs with increased UV-excited autofluorescence [2]	expression of Necdin [3]	expression of Wnt3a [3]	expression of Wnt10b [3]	EZH2 expression [3]	H3K27me2 at the Pparγ exon (Pparγ gene)	MeCP2 enrichment in the Pparγ promoter (Pparγ gene)	MeCP2 protein level (rat HSCs)	TUNEL+HSCs or hepatocytes in the liver parenchyma ([4]; RA ip daily 0.1 mg/25 g)	density of Desmin+HSCs (increased by BDL) ([4]; RA ip daily 0.1 mg/25 g)	liver to body weight percentage ([4]; RA ip daily 0.1 mg/25 g body weight during second week of BDL)	plasma ALT levels ([4]; RA ip daily 0.1 mg/25 g body weight during second week, p=0.29 vs vehicle)	liver fibrosis by digital morphometric analysis of Sirius red-stained collagen fibers ([4]; RA ip daily 0.1 mg/25 g body weight during second week, vs vehicle)	reduction of the percentage of SMA+HSCs [4, 5] [%]	reduction of the percentage of SMA+MFs [4, 5] [%]	hepatic mRNA level of SMA [4, 6]	hepatic mRNA level of α1(I) procollagen [4, 6]
O=C(O)[C@H]1O[C@@H](Oc2cc3oc(-c4ccccc4)cc(=O)c3c(O)c2O)[C@H](O)[C@@H](O)[C@@H]1O [BC, baicalin]	suppress	morphologically reverse activated HSCs to quiescent cells	reduced	suppress	suppress	reduce	reduce	reduce	reduce									
O=C(/C=C/c1ccc(O)c(O)c1)O[C@H](Cc1ccc(O)c(O)c1)C(=O)O [RA, rosmarinic acid]	suppress	morphologically reverse activated HSCs to quiescent cells	reduced	suppress	suppress	reduce	reduce	reduce	reduce	No TUNEL+HSCs or hepatocytes are detected	no effect	6.8 ± 0.7	157+71	significant attenuation	75	40	significantly reduced	significantly reduced
